Assay results: patent publication US8680290B2, “Isoxazoline derivatives and their use as herbicides” (Syngenta Limited, priority 2004, dated 2014)

Experiments:
[1] = test system: Monocotyledonous and dicotyledonous test plants; assay: Example B1 herbicidal action, application post-emergence (Table B1a); type: in vivo; conditions: 250 g/ha, evaluated after 3 weeks, scale 0-10
Summary of the method: (§1)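 Visual damage rating, 10 = plant dead and 0 = unharmed, taken at 3 weeks for post-emergence and 4 weeks for pre-emergence treatment. Application by spray of formulated aqueous solution either immediately after sowing or at 8–9 days' growth, with mono- and dicot plants kept in a greenhouse.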

[2] = test system: Monocotyledonous and dicotyledonous test plants; assay: Example B1 herbicidal action, application pre-emergence (Table B1b); type: in vivo; conditions: 250 g/ha, evaluated after 4 weeks
Summary of the method: as §1

Compound | herbicidal damage rating, Abutilon [1] | herbicidal damage rating, Amaranthus [1] | herbicidal damage rating, Digitaria [1] | herbicidal damage rating, Panicum [1] | herbicidal damage rating, Setaria [1] | herbicidal damage rating, Sida [1] | herbicidal action (damage rating 0-10), Amaranthus [2] | herbicidal action (damage rating 0-10), Digitaria [2] | herbicidal action (damage rating 0-10), Panicum [2] | herbicidal action (damage rating 0-10), Setaria [2] | herbicidal action (damage rating 0-10), Sida [2]
CC1(C)CC(S(=O)(=O)C(F)(F)c2cc(F)cc(F)c2)=NO1 [1.115] | 2 | 5 | 8 | 8 | 7 | 0 | 10 | 10 | 10 | 10 | 8
CC1(C)CC(S(=O)(=O)C(F)(F)c2cccc(F)c2F)=NO1 [1.116] | 5 | 5 | 8 | 7 | 7 | 0 | 10 | 10 | 10 | 10 | 7
CC1(C)CC(S(=O)(=O)C(F)(F)c2ccccc2-c2ccccc2)=NO1 [1.117] | 4 | 7 | 7 | 5 | 6 | 6 | 9 | 10 | 10 | 8 | 4
CC1(C)CC(S(=O)(=O)C(F)(F)c2ccc(F)cc2F)=NO1 [1.118] | 5 | 3 | 8 | 5 | 7 | 3 | 10 | 10 | 10 | 10 | 8
CCOC(=O)c1ccc(C(F)(F)S(=O)(=O)C2=NOC(C)(C)C2)c(F)c1 [1.120] | 7 | 0 | 8 | 3 | 4 | 0 | 8 | 6 | 8 | 0 | 5
CC1(C)CC(S(=O)(=O)C(F)(Cl)c2cc(F)cc(F)c2)=NO1 (stereo not shown) [1.125] | 0 | 0 | 8 | 7 | 5 | 3 | 10 | 10 | 10 | 10 | 7
CC1(C)CC(S(=O)(=O)C(F)(Cl)c2cc(F)ccc2F)=NO1 (stereo not shown) [1.126] | 3 | 0 | 8 | 5 | 5 | 5 | 10 | 10 | 10 | 10 | 8
CC1(C)CC(S(=O)(=O)C(Br)c2cccc(F)c2F)=NO1 (stereo not shown) [1.132] | 3 | 3 | 8 | 8 | 5 | 0 | 10 | 10 | 10 | 10 | 4
CC1(C)CC(S(=O)(=O)C(F)(Cl)c2ccc(F)cc2F)=NO1 (stereo not shown) [1.133] | 0 | 5 | 8 | 7 | 5 | 4 | 10 | 10 | 10 | 10 | 6
CC1(C)CC(S(=O)(=O)C(Cl)c2ccccc2OC(F)(F)F)=NO1 (stereo not shown) [1.143] | 3 | 7 | 7 | 7 | 6 | 2 | 7 | 10 | 10 | 10 | 7
CC1(C)CC(S(=O)(=O)C(F)(Cl)c2ccccc2OC(F)(F)F)=NO1 (stereo not shown) [1.144] | 3 | 3 | 8 | 7 | 7 | 5 | 10 | 10 | 10 | 10 | 8
Cc1ccc(F)c(C(F)(Cl)S(=O)(=O)C2=NOC(C)(C)C2)c1F (stereo not shown) [1.146] | 5 | 3 | 8 | 5 | 6 | 2 | 8 | 10 | 10 | 10 | 5
CC1(C)CC(S(=O)(=O)C(Cl)c2cc(F)cc3c2OCOC3)=NO1 (stereo not shown) [1.147] | 2 | 3 | 7 | 8 | 0 | 0 | 5 | 10 | 10 | 9 | 0
CC1(C)CC(S(=O)(=O)C(F)(Cl)c2cccc(F)c2F)=NO1 (stereo not shown) [1.148] | 0 | 7 | 8 | 8 | 8 | 2 | 10 | 10 | 10 | 10 | 6
